US10703765B2 (priority 2014, dated 2020)
Structures can show the parent of a compound that is named as a salt. Where two headings read alike, the source gives them in different places.

Biological target: human σ1 receptor (Homo sapiens, UniProt Q99720)
Experiment: biochemical
Format: binding
Design: μ and σ1 dual binding: key to the marks not given beside the values
[1] = read-out: μ and σ1 dual binding
[2] = combined class from Ki-σ1 (human σ1 receptor, A1) and Ki-μ (human μ-opioid receptor, A2) radioligand binding

human σ1 receptor, sequence (Q99720 whole entry): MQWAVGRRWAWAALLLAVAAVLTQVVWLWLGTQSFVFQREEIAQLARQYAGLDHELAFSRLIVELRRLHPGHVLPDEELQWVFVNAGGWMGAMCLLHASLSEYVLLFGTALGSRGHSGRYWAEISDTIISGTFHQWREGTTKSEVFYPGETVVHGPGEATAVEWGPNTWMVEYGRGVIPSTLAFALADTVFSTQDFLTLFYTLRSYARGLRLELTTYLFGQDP

Row | Compound | Ki [1] [nM] | other results
1 | Nc1cccc(CN2CC3(CCN(CCc4ccccc4)CC3)OCC2=O)n1 [Example 104, 4-((6-aminopyridin-2-yl)methyl)-9-phenethyl-1-oxa-4,9-diazaspiro[5.5]undecan-3-one] | > 500 | 
2 | O=C1COC2(CCN(CCc3ccccc3)CC2)CN1Cc1ccc(Cl)cn1 [Example 105, 4-((5-chloropyridin-2-yl)methyl)-9-phenethyl-1-oxa-4,9-diazaspiro[5.5]undecan-3-one hydrochloride] | < 100 | 
3 | CC(C)(C)OC(=O)Nc1nc(CCN2CCC3(CC2)CN(Cc2ccc(C(F)(F)F)cn2)C(=O)CO3)cs1 [Example 106, tert-butyl (4-(2-(3-oxo-4-((5-(trifluoromethyl)pyridin-2-yl)methyl)-1-oxa-4,9-diazaspiro[5.5]undecan-9-yl)ethyl)thiazol-2-yl)carbamate] | > 500 | 
4 | CNS(=O)(=O)c1ccc(CCN2CCC3(CC2)CN(c2ccccc2)C(=O)C(C)O3)cc1 (stereo not shown) [Example 107, N-methyl-4-(2-(2-methyl-3-oxo-4-phenyl-1-oxa-4,9-diazaspiro[5.5]undecan-9-yl)ethyl)benzenesulfonamide] | > 500 | 
5 | CC1OC2(CCN(CCc3ccc(S(N)(=O)=O)cc3)CC2)CN(c2ccccc2)C1=O (stereo not shown) [Example 108, 4-(2-(2-methyl-3-oxo-4-phenyl-1-oxa-4,9-diazaspiro[5.5]undecan-9-yl)ethyl)benzenesulfonamide] | > 500 | 
6 | COc1ccc(CN2CC3(CCN(CCc4ccccc4)CC3)OC3(CC3)C2=O)cc1 [Example 109, 12-(4-methoxybenzyl)-8-phenethyl-4-oxa-8,12-diazadispiro[2.1.5.3]tridecan-13-one hydrochloride] | < 100 | 
7 | CC1OC2(CCN(CCn3ccc([N+](=O)[O-])n3)CC2)CN(c2ccccc2)C1=O (stereo not shown) [Example 110, 2-methyl-9-(2-(3-nitro-1H-pyrazol-1-yl)ethyl)-4-phenyl-1-oxa-4,9-diazaspiro[5.5]undecan-3-one] | > 500 | 
8 | COc1ccc(CCN2CCC3(CC2)CN(c2ccccc2)C(=O)C(C)O3)cn1 (stereo not shown) [Example 111, 9-(2-(6-methoxypyridin-3-yl)ethyl)-2-methyl-4-phenyl-1-oxa-4,9-diazaspiro[5.5]undecan-3-one] |  | μ and σ1 dual binding: ++
9 | CC1OC2(CCN(CCc3cncc(C(F)(F)F)c3)CC2)CN(c2ccccc2)C1=O (stereo not shown) [Example 112, 2-methyl-4-phenyl-9-(2-(5-(trifluoromethyl)pyridin-3-yl)ethyl)-1-oxa-4,9-diazaspiro[5.5]undecan-3-one hydrochloride] |  | Ki: < 500 nM
10 | CC1OC2(CCN(CCc3ccc(Cl)nc3)CC2)CN(c2ccccc2)C1=O (stereo not shown) [Example 113, 9-(2-(6-chloropyridin-3-yl)ethyl)-2-methyl-4-phenyl-1-oxa-4,9-diazaspiro[5.5]undecan-3-one] | > 500 | 
11 | CC1OC2(CCN(CCc3cncc(F)c3)CC2)CN(c2ccccc2)C1=O (stereo not shown) [Example 114, 9-(2-(5-fluoropyridin-3-yl)ethyl)-2-methyl-4-phenyl-1-oxa-4,9-diazaspiro[5.5]undecan-3-one hydrochloride] |  | Ki: < 500 nM
12 | CC1OC2(CCN(CCc3cncc(Cl)c3)CC2)CN(c2ccccc2)C1=O (stereo not shown) [Example 115, 9-(2-(5-chloropyridin-3-yl)ethyl)-2-methyl-4-phenyl-1-oxa-4,9-diazaspiro[5.5]undecan-3-one hydrochloride] |  | Ki: < 500 nM
13 | CC1OC2(CCN(CCn3nccc3NC(=O)OC(C)(C)C)CC2)CN(c2ccccc2)C1=O (stereo not shown) [Example 116, tert-butyl (1-(2-(2-methyl-3-oxo-4-phenyl-1-oxa-4,9-diazaspiro[5.5]undecan-9-yl)ethyl)-1H-pyrazol-5-yl)carbamate] | > 500 | 
14 | CC(C)C1OC2(CCN(CCc3csc(NC(=O)OC(C)(C)C)n3)CC2)CN(c2ccccc2F)C1=O (stereo not shown) [Example 117, tert-butyl (4-(2-(4-(2-fluorophenyl)-2-isopropyl-3-oxo-1-oxa-4,9-diazaspiro[5.5]undecan-9-yl)ethyl)thiazol-2-yl)carbamate] | > 500 | 
15 | CC(C)(C)OC(=O)Nc1nc(CCN2CCC3(CC2)CN(c2ccccc2)C(=O)C2(CC2)O3)cs1 [Example 118, tert-butyl (4-(2-(13-oxo-12-phenyl-4-oxa-8,12-diazadispiro[2.1.5.3]tridecan-8-yl)ethyl)thiazol-2-yl)carbamate] | > 500 | 
16 | O=C1N(Cc2ccc(C(F)(F)F)cn2)CC2(CCN(CCc3cccc([N+](=O)[O-])c3)CC2)OC12CC2 [Example 119, 8-(3-nitrophenethyl)-12-{[5-(trifluoromethyl)pyridin-2-yl]methyl}-4-oxa-8,12-diazadispiro[2.1.5.3]tridecan-13-one] | > 500 | 
17 | CC(C)(C)OC(=O)Nc1nc(CCN2CCC3(CC2)CN(Cc2ccc(C(F)(F)F)cn2)C(=O)C2(CC2)O3)cs1 [Example 120, tert-butyl (4-(2-(13-oxo-12-{[5-(trifluoromethyl)pyridin-2-yl]methyl}-4-oxa-8,12-diazadispiro[2.1.5.3]tridecan-8-yl)ethyl)thiazol-2-yl)carbamate] | > 500 | 

Row | Compound | Ki [1] [nM] | other results
18 | CC1OC2(CCN(CCc3csc(NC(=O)OC(C)(C)C)n3)CC2)CN(c2cnccc2C(F)(F)F)C1=O (stereo not shown) [Example 121, tert-butyl (4-(2-(2-methyl-3-oxo-4-(4-(trifluoromethyl)pyridin-3-yl)-1-oxa-4,9-diazaspiro[5.5]undecan-9-yl)ethyl)thiazol-2-yl)carbamate] | > 500 | 
19 | CC(C)OCCN1CCC2(CC1)CN(c1ccccc1)C(=O)C(C)O2 (stereo not shown) [Example 122, 9-(2-isopropoxyethyl)-2-methyl-4-phenyl-1-oxa-4,9-diazaspiro[5.5]undecan-3-one] | > 500 | 
20 | CC1OC2(CCN(CCc3cccc(C#N)n3)CC2)CN(c2ccccc2)C1=O.Cl (stereo not shown) [Example 123, 6-(2-(2-methyl-3-oxo-4-phenyl-1-oxa-4,9-diazaspiro[5.5]undecan-9-yl)ethyl)picolinonitrile hydrochloride] |  | μ and σ1 dual binding: ++
21 | CC1OC2(CCN(CC(=O)N3CCOCC3)CC2)CN(Cc2ccc(C(F)(F)F)cn2)C1=O (stereo not shown) [Example 124, 2-methyl-9-(2-morpholino-2-oxoethyl)-4-((5-(trifluoromethyl)pyridin-2-yl)methyl)-1-oxa-4,9-diazaspiro[5.5]undecan-3-one hydrochloride] | > 500 | 
22 | CC(C)OCCN1CCC2(CC1)CN(Cc1ccc(C(F)(F)F)cn1)C(=O)C(C)O2 (stereo not shown) [Example 125, 9-(2-isopropoxyethyl)-2-methyl-4-((5-(trifluoromethyl)pyridin-2-yl)methyl)-1-oxa-4,9-diazaspiro[5.5]undecan-3-one] |  | μ and σ1 dual binding [2]: ++
23 | CC1OC2(CCN(CCc3ccccc3F)CC2)CN(c2cnccc2C(F)(F)F)C1=O (stereo not shown) [Example 126, 9-(2-fluorophenethyl)-2-methyl-4-(4-(trifluoromethyl)pyridin-3-yl)-1-oxa-4,9-diazaspiro[5.5]undecan-3-one hydrochloride] | < 100 | 
24 | C[C@@H]1OC2(CCN(CCc3ccccc3F)CC2)CN(c2cnccc2C(F)(F)F)C1=O.Cl [Example 127a, (S)-9-(2-fluorophenethyl)-2-methyl-4-(4-(trifluoromethyl)pyridin-3-yl)-1-oxa-4,9-diazaspiro[5.5]undecan-3-one hydrochloride] |  | μ and σ1 dual binding: ++
25 | C[C@H]1OC2(CCN(CCc3ccccc3F)CC2)CN(c2cnccc2C(F)(F)F)C1=O [Example 127b, (R)-9-(2-fluorophenethyl)-2-methyl-4-(4-(trifluoromethyl)pyridin-3-yl)-1-oxa-4,9-diazaspiro[5.5]undecan-3-one hydrochloride] | < 100 | 
26 | CC1OC2(CCN(CC(=O)N3CCCCC3)CC2)CN(Cc2ccc(C(F)(F)F)cn2)C1=O (stereo not shown) [Example 128, 2-methyl-9-(2-oxo-2-(piperidin-1-yl)ethyl)-4-((5-(trifluoromethyl)pyridin-2-yl)methyl)-1-oxa-4,9-diazaspiro[5.5]undecan-3-one hydrochloride] | > 500 | 
27 | CC1OC2(CCN(CC(=O)N3CCCCC3)CC2)CN(c2ccccc2)C1=O (stereo not shown) [Example 129, 2-methyl-9-(2-oxo-2-(piperidin-1-yl)ethyl)-4-phenyl-1-oxa-4,9-diazaspiro[5.5]undecan-3-one] | > 500 | 
28 | CC1OC2(CCN(CCc3ccccc3F)CC2)CN(c2cccnc2C(F)(F)F)C1=O (stereo not shown) [Example 130, 9-(2-fluorophenethyl)-2-methyl-4-(2-(trifluoromethyl)pyridin-3-yl)-1-oxa-4,9-diazaspiro[5.5]undecan-3-one dihydrochloride] | < 500 | 
29 | CC1OC2(CCN(CCC3CCOCC3)CC2)CN(c2ccccc2)C1=O.Cl (stereo not shown) [Example 131, 2-methyl-4-phenyl-9-(2-(tetrahydro-2H-pyran-4-yl)ethyl)-1-oxa-4,9-dizaspiro[5.5]undecan-3-one hydrochloride] |  | μ and σ1 dual binding: ++
30 | COc1cccc(CCN2CCC3(CC2)CN(c2ccccc2)C(=O)CO3)c1 [Example 132, 9-(3-methoxyphenethyl)-4-phenyl-1-oxa-4,9-diazaspiro[5.5]undecan-3-one] | < 500 | 
31 | CC1OC2(CCN(CCc3ccncc3)CC2)CN(c2ccccc2)C1=O.Cl (stereo not shown) [Example 133, 2-methyl-4-phenyl-9-(2-(pyridin-4-yl)ethyl)-1-oxa-4,9-diazaspiro[5.5]undecan-3-one hydrochloride] |  | μ and σ1 dual binding: ++
32 | COCC1OC2(CCN(CCc3ccccn3)CC2)CN(c2ccccc2F)C1=O.Cl (stereo not shown) [Example 134, 4-(2-fluorophenyl)-2-(methoxymethyl)-9-(2-(pyridin-2-yl)ethyl)-1-oxa-4,9-diazaspiro[5.5]undecan-3-one hydrochloride] |  | μ and σ1 dual binding: ++
33 | COCC1OC2(CCN(CCc3ccccc3OC)CC2)CN(c2ccccc2F)C1=O (stereo not shown) [Example 135, 4-(2-fluorophenyl)-2-(methoxymethyl)-9-(2-methoxyphenethyl)-1-oxa-4,9-diazaspiro[5.5]undecan-3-one] |  | μ and σ1 dual binding [2]: ++
34 | COCC1OC2(CCN(CCc3ccccc3F)CC2)CN(c2ccccc2F)C1=O (stereo not shown) [Example 136, 9-(2-fluorophenethyl)-4-(2-fluorophenyl)-2-(methoxymethyl)-1-oxa-4,9-diazaspiro[5.5]undecan-3-one hydrochloride] |  | Ki: < 500 nM
